Assay results reported in publication PMC11909056, “Investigation of cholinesterase and α-glucosidase enzyme activities, and molecular docking and dft studies for 1,2-disubstituted cyclopentane derivatives with phenyl and benzyl units” (Molecular Diversity, 2024).

Columns and labels:
[1] = target: T1, Butyrylcholinesterase (BChE) (Equus caballus, UniProt P81908); assay: biochemical
T1 construct: Butyrylcholinesterase from equine serum (CAS No.: 9001–08-5); from tissue; host or cells: equine serum
Method: (§1) The Ellman approach was employed to examine the impact of synthetic chemicals on the ability to inhibit AChE and BChE activity. AChI/BChI and DTNB were used to quantify the AChE/BChE activity. […] For different concentrations of the sample solution, 100 μL of buffer (1 M, Tris/HCl, pH 8.0) were used to dissolve 10 μL of the sample solution. […] The incubation was followed by the addition of DTNB (50 μL, 0.5 mM). Lastly, to start the reaction, 50 μL of bChI/aChI were added. […] Then, the activities of AChE/BChE were evaluated.

[2] = target: Acetylcholinesterase (AChE) (Electrophorus electricus, UniProt O42275); assay: biochemical
Method: as §1

α-Glucosidase = α-Glucosidase (Saccharomyces cerevisiae, UniProt P53341); assay: α-glucosidase inhibition with p-NPG substrate (Tao et al. method); type: biochemical
Method: Samples were made by dissolving 20 mg in 20 mL (EtOH:H2O). It was initially combined in 5–200 μL of sample with 700 μL of phosphate buffer (0.15 u/mL, pH 7.4) and 20 μL of enzyme solution [31, 32]. After a pre-incubation period of 10 min at 35 °C, 50 μL of p-NPG was added as the reaction began. Additionally, following the pre-incubation, 50 μL of p-NPG in phosphate buffer (5 mM, pH = 7.4) was added, and the incubation was repeated at 35 °C. A curve was fitted to the data to determine the IC50 and Ki values. […] (pH: 7.4).

T1 sequence (P81908 whole entry): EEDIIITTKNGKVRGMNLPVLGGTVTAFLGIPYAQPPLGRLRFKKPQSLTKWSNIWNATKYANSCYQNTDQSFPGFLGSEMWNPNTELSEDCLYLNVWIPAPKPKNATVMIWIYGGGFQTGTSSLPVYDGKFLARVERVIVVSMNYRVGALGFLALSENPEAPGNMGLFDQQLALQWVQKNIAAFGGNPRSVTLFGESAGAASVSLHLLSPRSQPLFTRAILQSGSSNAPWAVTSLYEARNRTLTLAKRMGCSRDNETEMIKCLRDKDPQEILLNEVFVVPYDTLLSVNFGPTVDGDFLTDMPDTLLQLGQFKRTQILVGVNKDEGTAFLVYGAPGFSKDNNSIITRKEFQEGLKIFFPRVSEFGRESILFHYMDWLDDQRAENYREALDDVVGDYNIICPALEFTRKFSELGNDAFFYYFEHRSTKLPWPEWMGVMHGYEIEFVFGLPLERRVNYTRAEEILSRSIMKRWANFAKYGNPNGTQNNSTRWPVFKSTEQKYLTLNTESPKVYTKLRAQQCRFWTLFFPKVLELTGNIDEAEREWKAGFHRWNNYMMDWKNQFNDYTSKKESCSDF
Sequence of Acetylcholinesterase (AChE) (O42275 24-633): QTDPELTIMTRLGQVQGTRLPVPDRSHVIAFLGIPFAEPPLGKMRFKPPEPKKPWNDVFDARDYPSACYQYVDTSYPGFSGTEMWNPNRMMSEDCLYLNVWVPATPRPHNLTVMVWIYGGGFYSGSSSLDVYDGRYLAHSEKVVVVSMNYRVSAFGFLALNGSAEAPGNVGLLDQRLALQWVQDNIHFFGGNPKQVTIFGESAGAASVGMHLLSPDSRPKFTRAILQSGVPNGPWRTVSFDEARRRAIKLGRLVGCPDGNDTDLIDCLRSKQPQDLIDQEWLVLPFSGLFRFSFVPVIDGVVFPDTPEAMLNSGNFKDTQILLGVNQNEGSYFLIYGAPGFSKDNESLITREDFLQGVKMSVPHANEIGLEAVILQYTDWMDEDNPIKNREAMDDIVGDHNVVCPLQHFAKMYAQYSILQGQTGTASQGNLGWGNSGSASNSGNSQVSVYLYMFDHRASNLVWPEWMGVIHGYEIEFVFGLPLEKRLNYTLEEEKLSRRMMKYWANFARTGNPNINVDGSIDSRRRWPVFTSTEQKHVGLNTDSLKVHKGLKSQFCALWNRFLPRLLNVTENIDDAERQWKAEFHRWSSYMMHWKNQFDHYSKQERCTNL
Sequence of α-Glucosidase (P53341 whole entry): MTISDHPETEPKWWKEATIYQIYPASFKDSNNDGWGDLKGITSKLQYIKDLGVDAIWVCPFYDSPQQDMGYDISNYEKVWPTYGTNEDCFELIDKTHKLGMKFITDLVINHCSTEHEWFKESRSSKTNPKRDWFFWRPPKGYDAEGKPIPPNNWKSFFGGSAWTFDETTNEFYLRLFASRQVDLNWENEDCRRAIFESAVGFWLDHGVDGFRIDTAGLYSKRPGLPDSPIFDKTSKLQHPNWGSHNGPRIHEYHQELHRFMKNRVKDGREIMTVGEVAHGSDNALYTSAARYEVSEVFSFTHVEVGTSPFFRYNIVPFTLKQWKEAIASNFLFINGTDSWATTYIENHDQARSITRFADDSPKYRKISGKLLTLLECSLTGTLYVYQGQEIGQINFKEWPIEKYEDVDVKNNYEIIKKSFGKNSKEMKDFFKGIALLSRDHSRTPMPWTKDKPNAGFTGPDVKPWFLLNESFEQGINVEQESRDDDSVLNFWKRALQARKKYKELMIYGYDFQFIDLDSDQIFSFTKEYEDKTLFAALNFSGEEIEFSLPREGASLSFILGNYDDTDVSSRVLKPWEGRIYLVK

Structure (SMILES)	IC50 [1]	Ki [1]	IC50 [2]	Ki [2]	IC50 (α-Glucosidase)	Ki (α-Glucosidase)
COc1ccc(C(=O)CCCCC(=O)c2ccc(OC)c(OC)c2O)c(O)c1OC [Compound 8]	222 nM	209 ± 14.7 nM	174 nM	171 ± 14.1 nM	36.4 nM	38.5 ± 4.25 nM
COc1c(Br)c(Br)c(CC2CCCC2c2c(Br)c(Br)c(OC)c(OC)c2OC)c(OC)c1OC (stereo not drawn) [Compound 12, 1,2-Dibromo-3-(2-(2,3-dibromo-4,5,6-trimethoxybenzyl)cyclopentyl)-4,5,6-trimethoxybenzene]	92.7 nM	84.3 ± 9.92 nM	65.5 nM	61.1 ± 5.26 nM	23.9 nM	27.4 ± 5.17 nM
COc1c(Br)cc(C2CCCC2Cc2c(Br)c(Br)c(OC)c(OC)c2OC)c(OC)c1OC (stereo not drawn) [Compound 13, 1,2-Dibromo-3-((2-(5-bromo-2,3,4-trimethoxyphenyl)cyclopentyl)methyl)-4,5,6-trimethoxybenzene]	217 nM	205 ± 17.4 nM	124 nM	108 ± 5.14 nM	31.6 nM	35.6 ± 3.95 nM
COc1c(Br)cc(C(=O)C(Br)CCC(Br)C(=O)c2cc(Br)c(OC)c(OC)c2O)c(O)c1OC (stereo not drawn) [Compound 9]	450 nM	428 ± 27.4 nM	49.8 nM	45.5 ± 7.35 nM	21.1 nM	25.5 ± 4.46 nM
COc1ccc(C2=C(/C(=N/NC(C)=O)c3ccc(OC)c(OC)c3OC)CCC2)c(OC)c1OC [Compound 10, (Z)-N'-((2,3,4-Trimethoxyphenyl)(2-(2,3,4-trimethoxyphenyl)cyclopent-1-en-1-yl)methylene)acetohydrazide]	135 nM	131 ± 14.5 nM	205 nM	196 ± 13.7 nM	28.4 nM	31.2 ± 5.54 nM
COc1ccc(CC2CCCC2c2ccc(OC)c(OC)c2OC)c(OC)c1OC (stereo not drawn) [Compound 11, 1,2,3-Trimethoxy-4-(2-(2,3,4-trimethoxybenzyl)cyclopentyl)benzene]	155 nM	145 ± 15.5 nM	170 nM	151 ± 13.3 nM	33.4 nM	38.1 ± 5.48 nM
COc1ccc(C(=O)C2CCC=C2c2ccc(OC)c(OC)c2OC)c(OC)c1OC (stereo not drawn) [Compound 5]	187 nM	176 ± 23.8 nM	92.2 nM	87.9 ± 7.27 nM	39.6 nM	44.7 ± 6.61 nM
COc1ccc(C(=O)CCCCC(=O)c2ccc(OC)c(OC)c2OC)c(OC)c1OC [Compound 6]	225 nM	212 ± 13.7 nM	189 nM	177 ± 22.6 nM	27.2 nM	29.1 ± 4.25 nM
COc1ccc(C(=O)C2=C(c3ccc(OC)c(OC)c3OC)CCC2)c(OC)c1OC [Compound 4, (2,3,4-trimethoxyphenyl)(2-(2,3,4-trimethoxyphenyl)cyclopent-1-en-1-yl)methanone]	414 nM	403 ± 32.3 nM	102 nM	99.7 ± 11.4 nM	41.6 nM	48.9 ± 7.33 nM
COc1ccc(C(=O)CCCCC(=O)c2ccc(OC)c(OC)c2OC)c(O)c1OC [Compound 7]	646 nM	622 ± 35.1 nM	644 nM	632 ± 18.9 nM	43.2 nM	46.5 ± 6.34 nM
